Experiments:
Experiment in all cases: relative viability (nuclei count vs DMSO), 5 days (fraction); higher = more cells survive
[1] = compound: CC1(C)CNc2cc(NC(=O)c3cccnc3NCc3ccncc3)ccc21 [Motesanib] + CC(C)C[C@H](NC(=O)[C@H](Cc1ccccc1)NC(=O)c1cnccn1)B(O)O [Bortezomib] (partner 0.002 µM)
In short: (§1)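 One day after seeding in 1536-well plates, lung cancer cell lines were dosed by pin tool. Dosing was either single-drug or a fixed anchor-drug dose plus five library-drug doses (not always all listed) in √10 steps. After 5 days, nuclei were stained in one fix-and-stain step and counted on 4× images, and relative viability is the nuclei count of treated wells over that of vehicle wells, given as the median of duplicate plates.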

[2] = compound: CC1(C)CNc2cc(NC(=O)c3cccnc3NCc3ccncc3)ccc21 [Motesanib] + CS(=O)(=O)N1CCN(Cc2cc3nc(-c4cccc5[nH]ncc45)nc(N4CCOCC4)c3s2)CC1 [Pictilisib] (partner 1 µM)
In short: as §1

[3] = compound: CC1(C)CNc2cc(NC(=O)c3cccnc3NCc3ccncc3)ccc21 [Motesanib] + O=C(c1cc(Cc2n[nH]c(=O)c3ccccc23)ccc1F)N1CCN(C(=O)C2CC2)CC1 [Olaparib] (partner 8 µM)
In short: as §1

[4] = compound: C[C@@]1(C(=O)Nc2ccc(F)nc2)CCCN1c1nc(Nc2cc(C3CC3)n[nH]2)c2cccn2n1 + Cc1nc(Nc2ncc(C(=O)Nc3c(C)cccc3Cl)s2)cc(N2CCN(CCO)CC2)n1 [Dasatinib] (partner 0.075 µM)
In short: as §1

Cell Line | relative viability ([1]; first compound 0.01 µM) | relative viability ([1]; first compound 0.03162 µM) | relative viability ([1]; first compound 0.1 µM) | relative viability ([1]; first compound 0.3162 µM) | relative viability ([1]; first compound 1 µM) | relative viability ([2]; first compound 0.01 µM) | relative viability ([2]; first compound 0.03162 µM) | relative viability ([2]; first compound 0.1 µM) | relative viability ([2]; first compound 0.3162 µM) | relative viability ([2]; first compound 1 µM) | relative viability ([3]; first compound 0.01 µM) | relative viability ([3]; first compound 0.03162 µM) | relative viability ([3]; first compound 0.1 µM) | relative viability ([3]; first compound 0.3162 µM) | relative viability ([3]; first compound 1 µM) | relative viability ([4]; first compound 0.04 µM) | relative viability ([4]; first compound 0.1265 µM) | relative viability ([4]; first compound 0.4 µM) | relative viability ([4]; first compound 1.265 µM)
NCI-H2009 | 1.07 | 1.05 | 1.05 | 1.2 | 1 | 0.734 | 0.732 | 0.818 | 0.827 | 0.873 | 0.717 | 0.667 | 0.693 | 0.646 | 0.682 | 0.279 | 0.224 | 0.166 | 0.154
NCI-H2023 | 0.934 | 1.07 | 0.887 | 0.966 | 1.09 | 0.234 | 0.226 | 0.276 | 0.239 | 0.238 | 0.469 | 0.409 | 0.515 | 0.496 | 0.425 | 0.407 | 0.165 | 0.154 | 0.105
NCI-H2085 | 1.14 | 1.12 | 0.977 | 1.09 | 1.14 | 0.377 | 0.447 | 0.405 | 0.509 | 0.468 | 0.756 | 0.777 | 0.764 | 0.745 | 0.843 | 0.289 | 0.309 | 0.187 | 0.178
NCI-H2087 | 0.796 | 0.781 | 0.885 | 0.76 | 0.704 | 0.695 | 0.794 | 0.705 | 0.988 | 0.843 |  |  | 0.663 | 0.703 | 0.747 | 0.727 | 0.568 | 0.508 | 0.389
NCI-H2126 | 1.07 | 1.17 | 1.11 | 1.17 | 1.12 | 0.531 | 0.539 | 0.476 | 0.553 | 0.508 | 0.892 | 0.885 | 0.899 | 0.892 | 1 | 0.346 | 0.242 | 0.262 | 0.294
NCI-H2228 | 0.957 | 1.13 | 0.881 | 1.28 | 1.01 | 0.442 | 0.356 | 0.387 | 0.365 | 0.535 | 0.794 | 0.74 | 0.668 | 0.838 | 0.749 | 0.414 | 0.278 | 0.22 | 0.208
NCI-H2347 | 1.08 | 0.574 | 1.08 | 0.799 | 1.05 | 0.476 | 0.803 | 0.382 | 0.456 | 0.678 | 0.536 | 0.507 | 0.559 | 0.537 | 0.596 | 0.289 | 0.288 | 0.343 | 0.189
NCI-H2405 | 0.907 | 0.925 | 0.96 | 0.998 | 1.04 |  | 0.393 | 0.433 | 0.425 | 0.434 | 0.741 | 0.808 | 0.859 | 0.837 | 0.832 | 0.211 | 0.177 | 0.185 | 0.186
NCI-H3122 | 1.04 | 0.967 | 1.04 | 1.12 | 1.01 | 0.46 | 0.534 | 0.618 | 0.626 | 0.667 | 0.581 | 0.644 | 0.644 | 0.632 | 0.683 | 0.581 | 0.786 | 0.348 | 0.677
